From ChEMBL document CHEMBL1201862, “PubChem BioAssay data set” (2004)
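Growth conditions: 96-well plates. Treatment: test compound, 48 hours, 5 concentrations. Analysis: linear interpolation between bracketing concentrations; unreached endpoints set to highest concentration. GI50 marks 50% less growth.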 The source made the active and inactive calls. Rule as the data show it: active = GI50 up to about 1.1 µM and inactive = higher.

Key:
Assay in all cases: DTP human tumour cell line panel, 48 h
[1] = system: A549
[2] = system: HCT-15
[3] = system: HL-60
[4] = system: HOP-62
[5] = system: Hs-578T
[6] = system: IGROV-1
[7] = system: M14
[8] = system: MCF7
[9] = system: MOLT-4
[10] = system: NCI-H226
[11] = system: OVCAR-4
[12] = system: SK-MEL-2
[13] = system: SK-MEL-5
[14] = system: SK-OV-3
[15] = system: SN12C
[16] = system: SNB-19
[17] = system: SNB-75
[18] = system: SW-620
[19] = system: UACC-62
[20] = system: OVCAR-3

Row | SMILES | GI50 [1] | GI50 [2] | GI50 [3] | GI50 [4] | GI50 [5] | GI50 [6] | GI50 [7] | GI50 [8] | GI50 [9] | GI50 [10] | GI50 [11] | GI50 [12] | GI50 [13] | GI50 [14] | GI50 [15] | GI50 [16] | GI50 [17] | GI50 [18] | GI50 [19] | GI50 [20]
1 | CC(C)=CCC1=C(OCC(=O)O)C(=O)c2ccccc2C1=O | 30.8 µM (inactive) | 39.4 µM | 14.5 µM (inactive) | 40.9 µM (inactive) | 22.2 µM (inactive) | 39.1 µM (inactive) | 33 µM (inactive) | 25.1 µM (inactive) | 15.9 µM (inactive) | 32.4 µM (inactive) | 31.9 µM (inactive) | 25.7 µM (inactive) | 19.5 µM (inactive) | 67.9 µM (inactive) | 24.5 µM (inactive) | 27.9 µM (inactive) | 24.4 µM (inactive) | 23 µM (inactive) | 19 µM (inactive) | 
2 | Clc1ccc2oc(CCC3CCCCC3)nc2c1 | 31.6 µM (inactive) | 24.7 µM | 16.3 µM (inactive) | 22.3 µM (inactive) | 91.2 µM (inactive) |  | 32 µM (inactive) | 26.1 µM (inactive) | 16.4 µM (inactive) | 19.2 µM (inactive) | 27.4 µM (inactive) | 19.1 µM (inactive) | 16.9 µM (inactive) | 26.1 µM (inactive) | 21.9 µM (inactive) | 42.3 µM (inactive) | 23 µM (inactive) | 31.8 µM (inactive) | 60.4 µM (inactive) | 15.6 µM (inactive)
3 | CNc1cc(Cl)ccc1C(=O)N1CCC[C@H]1CO | > 100 µM (inactive) | > 100 µM | 81.7 µM (inactive) | > 100 µM (inactive) | > 100 µM (inactive) | > 100 µM (inactive) | > 100 µM (inactive) | > 100 µM (inactive) | > 100 µM (inactive) | 78.2 µM (inactive) | 29.2 µM (inactive) | > 100 µM (inactive) | 74.1 µM (inactive) | > 100 µM (inactive) | > 100 µM (inactive) | > 100 µM (inactive) | 53.5 µM (inactive) | > 100 µM (inactive) | > 100 µM (inactive) | 
4 | Cn1c2c(c3ccccc31)CCN=C2C1CCCOC1=O (configuration not stated) | > 100 µM (inactive) | > 100 µM | > 100 µM (inactive) | > 100 µM (inactive) | 32.6 µM (inactive) | > 100 µM (inactive) | > 100 µM (inactive) | > 100 µM (inactive) |  | 11.7 µM (inactive) | > 100 µM (inactive) | > 100 µM (inactive) | > 100 µM (inactive) |  | > 100 µM (inactive) | > 100 µM (inactive) | 85.9 µM (inactive) | > 100 µM (inactive) | > 100 µM (inactive) | > 100 µM (inactive)
5 | COc1ccc2[nH]c3c(C)c4cnccc4c(C)c3c2c1 | 1.85 µM (inactive) | 1.61 µM | 2.28 µM (inactive) | 1.43 µM (inactive) | 5.55 µM (inactive) | 3.85 µM (inactive) | 1.26 µM (inactive) | 1.52 µM (inactive) | 0.571 µM (active) | 1.4 µM (inactive) | 1.94 µM (inactive) | 5.14 µM (inactive) | > 10 µM (inactive) | > 10 µM (inactive) | 2.24 µM (inactive) | > 10 µM (inactive) | 2.25 µM (inactive) | 0.964 µM (active) | > 10 µM (inactive) | 1.14 µM (inactive)
6 | C=CC(=O)NCCC(=O)OCn1cc(F)c(=O)[nH]c1=O | 2.36 µM (inactive) | 6.14 µM | 0.425 µM (active) | 4.98 µM (inactive) | > 100 µM (inactive) | 4.33 µM (inactive) | 9.89 µM (inactive) | 1.2 µM (inactive) | 6.01 µM (inactive) | 13.3 µM (inactive) | 0.759 µM (active) | 7.93 µM (inactive) | 3.67 µM (inactive) | 16.3 µM (inactive) | 0.838 µM (active) | 39.4 µM (inactive) | 19.4 µM (inactive) | 17.2 µM (inactive) | 4.08 µM (inactive) | 10.5 µM (inactive)
7 | CC(=O)O[C@H]1CC[C@@]2(C)C(=CC[C@@H]3[C@@H]2CC[C@]2(C)Nc4c(cnn4S(C)(=O)=O)C[C@@H]32)C1 |  | 43.6 µM | 23.4 µM (inactive) | 89.9 µM (inactive) | 62.4 µM (inactive) | 97.1 µM (inactive) | 27.8 µM (inactive) | 28.9 µM (inactive) | 20.1 µM (inactive) | 35.2 µM (inactive) |  | > 100 µM (inactive) | 16.4 µM (inactive) | > 100 µM (inactive) | > 100 µM (inactive) | > 100 µM (inactive) | 69.3 µM (inactive) |  | 47.3 µM (inactive) | 48 µM (inactive)
8 | C[C@@H]1Nc2cc(NC(=O)OCCF)nc(N)c2N=C1c1ccccc1 | < 0.0001 µM (active) | < 0.0001 µM | < 0.0001 µM (active) | < 0.0001 µM (active) | < 0.0001 µM (active) | < 0.0001 µM (active) | < 0.0001 µM (active) | 0.0208 µM (active) | < 0.0001 µM (active) | 42.2 µM (inactive) |  | < 0.01 µM (active) | < 0.0001 µM (active) |  | < 0.0001 µM (active) | 0.0409 µM (active) | 32.7 µM (inactive) | < 0.0001 µM (active) | 34.8 µM (inactive) | < 0.0001 µM (active)
9 | Cc1cc(NS(=O)(=O)c2ccc(/N=[N+](\[O-])c3ccc(S(=O)(=O)Nc4cc(C)on4)cc3)cc2)no1 | > 100 µM (inactive) | > 100 µM | > 100 µM (inactive) | > 100 µM (inactive) | > 100 µM (inactive) | > 100 µM (inactive) | > 100 µM (inactive) | > 100 µM (inactive) | > 100 µM (inactive) | > 100 µM (inactive) | > 100 µM (inactive) | > 100 µM (inactive) | > 100 µM (inactive) | > 100 µM (inactive) | > 100 µM (inactive) | > 100 µM (inactive) | > 100 µM (inactive) |  | > 100 µM (inactive) | > 100 µM (inactive)
10 | COC(=O)C1c2c(c3ccccc3n2C(=O)OC)CCN2CCC1C(S(=O)(=O)c1ccccc1)C2=O (configuration not stated) | > 100 µM (inactive) | > 100 µM | 90.6 µM (inactive) | 70.3 µM (inactive) | > 100 µM (inactive) | > 100 µM (inactive) | > 100 µM (inactive) | > 100 µM (inactive) | 40.5 µM (inactive) | 24 µM (inactive) |  | > 100 µM (inactive) | > 100 µM (inactive) | > 100 µM (inactive) | > 100 µM (inactive) | 94.6 µM (inactive) | > 100 µM (inactive) | > 100 µM (inactive) | > 100 µM (inactive) | > 100 µM (inactive)
11 | COC(=O)/C=C1\SC2(O\C1=N/c1ccccc1)C1CC3CC(C1)CC2C3 (configuration not stated) | > 100 µM (inactive) | > 100 µM | > 100 µM (inactive) | > 100 µM (inactive) | > 100 µM (inactive) | > 100 µM (inactive) |  | > 100 µM (inactive) | > 100 µM (inactive) | > 100 µM (inactive) | 36.1 µM (inactive) | > 100 µM (inactive) | > 100 µM (inactive) | > 100 µM (inactive) | > 100 µM (inactive) | > 100 µM (inactive) | > 100 µM (inactive) | > 100 µM (inactive) | > 100 µM (inactive) | > 100 µM (inactive)
12 | O=c1cnn(C/C=C/CO)c(=O)[nH]1 | > 100 µM (inactive) | > 100 µM | > 100 µM (inactive) | > 100 µM (inactive) | > 100 µM (inactive) | > 100 µM (inactive) | > 100 µM (inactive) | > 100 µM (inactive) |  | > 100 µM (inactive) |  | > 100 µM (inactive) | > 100 µM (inactive) |  | > 100 µM (inactive) | > 100 µM (inactive) | > 100 µM (inactive) | > 100 µM (inactive) |  | > 100 µM (inactive)
13 | CC[C@@]1(O)C(=O)OCc2c1cc1n(c2=O)Cc2c-1nc1ccccc1c2/C=N\NC(=O)C(N)Cc1c[nH]c2ccccc12 (some centres not stated) | 0.301 µM (active) |  | 0.0638 µM (active) | 0.0556 µM (active) | 27.9 µM (inactive) | 2.86 µM (inactive) | 0.332 µM (active) | 0.0668 µM (active) | < 0.01 µM (active) | 1.11 µM (active) | 3.08 µM (inactive) | 5.93 µM (inactive) | 0.521 µM (active) | 0.49 µM (active) | 0.108 µM (active) | < 0.0198 µM (active) | 0.0745 µM (active) | 0.61 µM (active) | 0.0528 µM (active) | 5.14 µM (inactive)
14 | Cc1ccccc1/N=N/c1c(O)c(S(=O)(=O)O)cc2cc(S(=O)(=O)O)ccc12 | > 100 µM (inactive) | > 100 µM | > 100 µM (inactive) | > 100 µM (inactive) | > 100 µM (inactive) | > 100 µM (inactive) | > 100 µM (inactive) | > 100 µM (inactive) | > 100 µM (inactive) | > 100 µM (inactive) | > 100 µM (inactive) | > 100 µM (inactive) | > 100 µM (inactive) | > 100 µM (inactive) | > 100 µM (inactive) | > 100 µM (inactive) | 70.1 µM (inactive) | > 100 µM (inactive) | > 100 µM (inactive) | > 100 µM (inactive)
15 | CCc1nc(N)nc(N)c1-c1ccc(Cl)c([N+]#N)c1 | 20.6 µM (inactive) | 28.8 µM | 40.8 µM (inactive) | 82 µM (inactive) | 46.6 µM (inactive) | 6.58 µM (inactive) | 65.5 µM (inactive) | > 100 µM (inactive) | 23.1 µM (inactive) | > 100 µM (inactive) | > 100 µM (inactive) | > 100 µM (inactive) | 46.2 µM (inactive) | > 100 µM (inactive) | 50.6 µM (inactive) | > 100 µM (inactive) | > 100 µM (inactive) | 36.5 µM (inactive) | 41 µM (inactive) | 44.5 µM (inactive)
